Measurements taken from patent US9133181B2, “Substituted 6-(4-hydroxy-phenyl)-1H-pyrazolo[3,4-b]pyridine derivatives as kinase inhibitors” (SANOFI, priority 2012, dated 2015).

biological target: T1, human full-length recombinant PKC βII (Homo sapiens, UniProt P05771); assay: Determination of PKC βII inhibition (Caliper mobility shift kinase assay); format: biochemical; settings: final compound concentration 1.14 μM (±0.15 μM); 60 min incubation at 32° C.
T1 construct: Active human full-length recombinant PKC βII; purchased Invitrogen GmbH, Darmstadt, Germany
T1 sequence (P05771 1-673 isoform P05771-2): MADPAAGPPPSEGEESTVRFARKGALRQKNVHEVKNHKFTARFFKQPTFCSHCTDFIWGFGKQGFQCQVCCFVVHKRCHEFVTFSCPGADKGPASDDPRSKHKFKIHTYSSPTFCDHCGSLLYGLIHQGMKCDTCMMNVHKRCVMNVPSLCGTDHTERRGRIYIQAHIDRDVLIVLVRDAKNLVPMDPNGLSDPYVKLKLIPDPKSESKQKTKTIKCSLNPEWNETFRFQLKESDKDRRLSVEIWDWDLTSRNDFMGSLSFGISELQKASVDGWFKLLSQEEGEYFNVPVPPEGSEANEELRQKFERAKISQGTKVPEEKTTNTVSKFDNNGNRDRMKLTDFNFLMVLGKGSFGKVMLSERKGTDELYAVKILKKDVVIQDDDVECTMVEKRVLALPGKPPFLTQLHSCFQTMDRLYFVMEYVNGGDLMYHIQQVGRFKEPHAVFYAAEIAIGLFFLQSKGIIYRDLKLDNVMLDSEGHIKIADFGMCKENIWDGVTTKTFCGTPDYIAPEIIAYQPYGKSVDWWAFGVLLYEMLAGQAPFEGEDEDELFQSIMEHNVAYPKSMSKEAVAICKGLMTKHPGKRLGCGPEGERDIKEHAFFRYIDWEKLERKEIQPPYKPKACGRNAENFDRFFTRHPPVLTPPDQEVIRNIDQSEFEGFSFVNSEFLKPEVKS
Outline: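 Compound was tested at a final 1.14 µM (±0.15 µM), with % inhibition derived from the product/(substrate+product) peak ratio on a Caliper mobility-shift read-out. Full-length PKC βII was activated by CaCl2, PS and DAG in pH 7.4 Hepes/MgCl2. Peptide and ATP were at 3 µM and 120 µM in the added mix. Incubation was 60 min at 32 °C.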

inhibition at 1.14 µM	Compound
95%	Cc1n[nH]c2nc(-c3ccc(O)cc3)cc(CN3CC(C)(C)NC[C@@H]3C)c12 [Example 139, 4-[3-Methyl-4-((S)-2,5,5-trimethyl-piperazin-1-ylmethyl)-1H-pyrazolo[3,4-b]pyridin-6-yl]-phenol]
98%	Cc1n[nH]c2nc(-c3ccc(O)cc3)cc(CN3CC(C)(C)NC[C@H]3C)c12 [Example 140, 4-[3-Methyl-4-((R)-2,5,5-trimethyl-piperazin-1-ylmethyl)-1H-pyrazolo[3,4-b]pyridin-6-yl]-phenol]
98%	CC[C@]1(C)CNC(C)(C)CN1Cc1cc(-c2ccc(O)cc2)nc2[nH]nc(C)c12 [Example 141, 4-[4-((R)-2-Ethyl-2,5,5-trimethyl-piperazin-1-ylmethyl)-3-methyl-1H-pyrazolo[3,4-b]pyridin-6-yl]-phenol]
100%	CC[C@@]1(C)CNC(C)(C)CN1Cc1cc(-c2ccc(O)cc2)nc2[nH]nc(C)c12 [Example 142, 4-[4-((S)-2-Ethyl-2,5,5-trimethyl-piperazin-1-ylmethyl)-3-methyl-1H-pyrazolo[3,4-b]pyridin-6-yl]-phenol]
101%	CC[C@H]1CNC(C)(C)CN1Cc1cc(-c2ccc(O)cc2F)nc2[nH]nc(C)c12 [Example 143, 4-[4-((S)-2-Ethyl-5,5-dimethyl-piperazin-1-ylmethyl)-3-methyl-1H-pyrazolo[3,4-b]pyridin-6-yl]-3-fluoro-phenol]
98%	CC[C@@H]1CNC(C)(C)CN1Cc1cc(-c2ccc(O)cc2F)nc2[nH]nc(C)c12 [Example 144, 4-[4-((R)-2-Ethyl-5,5-dimethyl-piperazin-1-ylmethyl)-3-methyl-1H-pyrazolo[3,4-b]pyridin-6-yl]-3-fluoro-phenol]
95%	CC[C@H]1CNC(C)(C)CN1Cc1cc(-c2ccc(O)cc2)nc2[nH]nc(C)c12 [Example 145, 4-[4-((S)-2-Ethyl-5,5-dimethyl-piperazin-1-ylmethyl)-3-methyl-1H-pyrazolo[3,4-b]pyridin-6-yl]-phenol]
99%	CC[C@@H]1CNC(C)(C)CN1Cc1cc(-c2ccc(O)cc2)nc2[nH]nc(C)c12 [Example 146, 4-[4-((R)-2-Ethyl-5,5-dimethyl-piperazin-1-ylmethyl)-3-methyl-1H-pyrazolo[3,4-b]pyridin-6-yl]-phenol]
100%	Cc1n[nH]c2nc(-c3ccc(O)cc3F)cc(CN3CCC[C@](C)(N)C3)c12 [Example 147, 4-[4-((S)-3-Amino-3-methyl-piperidin-1-ylmethyl)-3-methyl-1H-pyrazolo[3,4-b]pyridin-6-yl]-3-fluoro-phenol]
99%	Cc1n[nH]c2nc(-c3ccc(O)cc3F)cc(CN3CCC[C@@](C)(N)C3)c12 [Example 148, 4-[4-((R)-3-Amino-3-methyl-piperidin-1-ylmethyl)-3-methyl-1H-pyrazolo[3,4-b]pyridin-6-yl]-3-fluoro-phenol]
98%	Cc1n[nH]c2nc(-c3ccc(O)cc3F)cc(CN3C[C@@](C)(C4CC4)NCC3(C)C)c12 [Example 149, 4-[4-((R)-5-Cyclopropyl-2,2,5-trimethyl-piperazin-1-ylmethyl)-3-methyl-1H-pyrazolo[3,4-b]pyridin-6-yl]-3-fluoro-phenol]
100%	Cc1n[nH]c2nc(-c3ccc(O)cc3F)cc(CN3C[C@](C)(C4CC4)NCC3(C)C)c12 [Example 150, 4-[4-((S)-5-Cyclopropyl-2,2,5-trimethyl-piperazin-1-ylmethyl)-3-methyl-1H-pyrazolo[3,4-b]pyridin-6-yl]-3-fluoro-phenol]
90%	Cc1n[nH]c2nc(-c3ccc(O)cc3F)cc(CN3C[C@H](C)NC[C@@H]3C(F)(F)F)c12 [Example 151, 3-Fluoro-4-[3-methyl-4-((2R,5S)-5-methyl-2-trifluoromethyl-piperazin-1-ylmethyl)-1H-pyrazolo[3,4-b]pyridin-6-yl]-phenol]
93%	Cc1n[nH]c2nc(-c3ccc(O)cc3F)cc(CN3C[C@@H](C)NC[C@@H]3C(F)(F)F)c12 [Example 152, 3-Fluoro-4-[3-methyl-4-((2R,5R)-5-methyl-2-trifluoromethyl-piperazin-1-ylmethyl)-1H-pyrazolo[3,4-b]pyridin-6-yl]-phenol]
97%	Cc1n[nH]c2nc(-c3ccc(O)cc3F)cc(CN3C[C@@H](C)NC[C@H]3C(F)(F)F)c12 [Example 153, 3-Fluoro-4-[3-methyl-4-((2S,5R)-5-methyl-2-trifluoromethyl-piperazin-1-ylmethyl)-1H-pyrazolo[3,4-b]pyridin-6-yl]-phenol]
92%	Cc1n[nH]c2nc(-c3ccc(O)cc3F)cc(CN3C[C@H](C)NC[C@H]3C(F)(F)F)c12 [Example 154, 3-Fluoro-4-[3-methyl-4-((2S,5S)-5-methyl-2-trifluoromethyl-piperazin-1-ylmethyl)-1H-pyrazolo[3,4-b]pyridin-6-yl]-phenol]
